Values quoted from earlier work as cited in patent US20140107053A1, “APPLES WITH HIGH POLYPHENOLIC CONTENT” (CORESSENCE LIMITED, priority 2006, published 2014).

Assays:
[1] = compared to (−)-epicatechin monomers (Shoji et al. 2006)
[2] = indicated by Tmax values in human studies

detection in human plasma | site of absorption [2] | Molecule | also measured
detected at low levels | – | Oc1cc(O)c2c(c1)O[C@H](c1ccc(O)c(O)c1)[C@H](O)[C@H]2c1c(O)cc(O)c2c1O[C@H](c1ccc(O)c(O)c1)[C@@H](O)C2 [Apple B1, epicatechin-(4β-8)-catechin] | –
detected at low levels | – | Oc1cc(O)c2c(c1)O[C@H](c1ccc(O)c(O)c1)[C@H](O)[C@H]2c1c(O)cc(O)c2c1O[C@H](c1ccc(O)c(O)c1)[C@H](O)C2 [Apple B2, epicatechin-(4β-8)-epicatechin] | –
– | – | Oc1cc(O)c2c(c1)O[C@H](c1ccc(O)c(O)c1)[C@H](O)[C@H]2c1c(O)cc2c(c1O)C[C@@H](O)[C@@H](c1ccc(O)c(O)c1)O2 [Apple B5, epicatechin-(4β-6)-epicatechin] | detection in plasma (after chocolate consumption (Holt et al. 2002)): could not be detected
– | absorbed mainly in the small intestine | O.Oc1cc(O)c2c(c1)O[C@H](c1ccc(O)c(O)c1)[C@@H](O)C2 [catechin] | bioavailability [1]: relatively low bioavailability
– | absorbed mainly in the small intestine | epicatechin | –
